Results on 16 molecules are retold here after PubChem BioAssay (NCI).

Test systems include NCI-H522 lung; SF-295 CNS; A549 NSCLC; KM12 colon; SNB-19 CNS; SNB-75 CNS; RPMI-8226 leukemia; OVCAR-4 ovarian; SW-620 colon; MDA-MB-231 breast; UACC-62 melanoma; MDA-N; EKVX NSCLC; OVCAR-8 ovarian; T-47D breast; OVCAR-5 ovarian; SF-539 CNS; SF-268 CNS.
What all share (assay): NCI tumour cell line growth inhibition, 48 h

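Exposure lasted 48 hours, with cells grown in 96-well plates and compounds tested at five concentrations. TGI is the concentration that stops growth completely.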

Take `COCn1c2ccc(OC(C)=O)cc2c2c(=O)oc(N(C)C)nc21`: the TGI in the assay with NCI-H522 lung, in the assay with SF-295 CNS, in the assay on A549 NSCLC, in the assay on KM12 colon, in the assay with SNB-19 CNS and in the assay on SNB-75 CNS was over 100 µM in each case. In addition, the TGI with RPMI-8226 leukemia, in the assay with OVCAR-4 ovarian, with SW-620 colon, in the assay with MDA-MB-231 breast, with UACC-62 melanoma and with MDA-N was over 100 µM in each case. Also, the TGI in the assay on EKVX NSCLC, with OVCAR-8 ovarian, with T-47D breast, in the assay with OVCAR-5 ovarian and in the assay on SF-539 CNS was over 100 µM in each case.
As for `CN(/N=C(\C(=O)O)c1ccccc1)C1=NCCCN1`, the TGI with NCI-H522 lung, with SF-295 CNS, in the assay with A549 NSCLC, in the assay with KM12 colon, with SNB-75 CNS and in the assay on SF-268 CNS was over 100 µM in each case. The TGI in the assay with RPMI-8226 leukemia, in the assay with OVCAR-4 ovarian, in the assay on SW-620 colon, with MDA-MB-231 breast, with UACC-62 melanoma and in the assay on MDA-N was over 100 µM throughout. The TGI in the assay on EKVX NSCLC, in the assay with OVCAR-8 ovarian, in the assay with T-47D breast, in the assay on OVCAR-5 ovarian and with SF-539 CNS was over 100 µM in each case.
Take `CC12Nc3ccccc3N1C(=O)c1ccccc12` (centres undefined): the TGI in the assay with NCI-H522 lung, in the assay on SF-295 CNS, with A549 NSCLC, with KM12 colon, in the assay on SNB-19 CNS and with SF-268 CNS was over 100 µM in each case. For the same molecule, the TGI with RPMI-8226 leukemia, with OVCAR-4 ovarian, in the assay with SW-620 colon, in the assay with MDA-MB-231 breast, with UACC-62 melanoma and in the assay on MDA-N was over 100 µM each time. For the same molecule, the TGI with EKVX NSCLC, with OVCAR-8 ovarian, with T-47D breast, in the assay with OVCAR-5 ovarian and in the assay with SF-539 CNS was over 100 µM each time.
For `Cc1ccc(-c2nc3ccc(Cl)cc3[nH]2)cc1`, the TGI in the assay on NCI-H522 lung, in the assay on SF-295 CNS, in the assay on A549 NSCLC, in the assay on KM12 colon, with SNB-19 CNS and with SNB-75 CNS was over 100 µM throughout. Further, the TGI with SF-268 CNS, with RPMI-8226 leukemia, with OVCAR-4 ovarian, with SW-620 colon, in the assay with MDA-MB-231 breast and in the assay with UACC-62 melanoma was over 100 µM each time. The TGI in the assay with MDA-N, with EKVX NSCLC, in the assay on OVCAR-8 ovarian, in the assay on T-47D breast and in the assay on SF-539 CNS was over 100 µM in each case.
Consider `Fc1ccc2nc3n(c2c1)C(c1c(F)cccc1F)SC3` (centres undefined), for which the TGI in the assay on NCI-H522 lung, in the assay on SF-295 CNS, in the assay on A549 NSCLC, in the assay on KM12 colon, in the assay with SNB-19 CNS and in the assay on SNB-75 CNS was over 100 µM each time. In addition, the TGI in the assay with SF-268 CNS, in the assay on RPMI-8226 leukemia, in the assay on OVCAR-4 ovarian, with SW-620 colon, in the assay with MDA-MB-231 breast and in the assay with UACC-62 melanoma was over 100 µM throughout. Further, the TGI is 85.3 µM in the assay on MDA-N; over 100 µM with OVCAR-8 ovarian; over 100 µM in the assay with T-47D breast; over 100 µM with OVCAR-5 ovarian; over 100 µM in the assay with SF-539 CNS.
With `N#C/C(=C\c1ccccc1)C(=O)Nc1nnc(-c2ccccc2)o1`, the TGI in the assay with NCI-H522 lung, in the assay with SF-295 CNS, with A549 NSCLC, in the assay with KM12 colon, with SNB-75 CNS and with SF-268 CNS was over 100 µM throughout. Also, the TGI in the assay with RPMI-8226 leukemia was 62.6 µM; in the assay on OVCAR-4 ovarian, over 100 µM; in the assay with SW-620 colon, over 100 µM; with MDA-MB-231 breast, over 100 µM; with UACC-62 melanoma it was 53.7 µM; in the assay on MDA-N, over 100 µM. The TGI with EKVX NSCLC, in the assay on OVCAR-8 ovarian, in the assay on T-47D breast and with OVCAR-5 ovarian was over 100 µM each time.
Take `CCCC(=O)NC1=C(NCC)C(=O)c2ccccc2C1=O`: the TGI in the assay on NCI-H522 lung, in the assay with SF-295 CNS, with A549 NSCLC, in the assay with KM12 colon, with SNB-19 CNS and with SNB-75 CNS was over 100 µM each time. Also, the TGI in the assay on SF-268 CNS, in the assay on RPMI-8226 leukemia, in the assay with OVCAR-4 ovarian, in the assay with SW-620 colon, in the assay with MDA-MB-231 breast and in the assay on UACC-62 melanoma was over 100 µM throughout. Besides, the TGI is 63.2 µM in the assay on MDA-N, over 100 µM in the assay on T-47D breast, over 100 µM in the assay on OVCAR-5 ovarian and over 100 µM with SF-539 CNS.
In the case of `COc1ccc2[nH]c3c(c2c1)CCn1c-3nc2ccccc2c1=O`, the TGI with NCI-H522 lung, in the assay with SF-295 CNS, in the assay with A549 NSCLC, in the assay with KM12 colon, with SNB-19 CNS and with SNB-75 CNS was over 25 µM in each case. For the same molecule, the TGI in the assay with SF-268 CNS, in the assay with RPMI-8226 leukemia, in the assay on OVCAR-4 ovarian, with SW-620 colon, with MDA-MB-231 breast and with MDA-N was over 25 µM throughout. Moreover, the TGI in the assay with EKVX NSCLC, in the assay with OVCAR-8 ovarian, in the assay with T-47D breast, with OVCAR-5 ovarian and in the assay on SF-539 CNS was over 25 µM in each case.
Turning to `CCC1(CC)CC(=NNS(=O)(=O)c2ccc(C)cc2)C1`, the TGI in the assay with NCI-H522 lung, in the assay with SF-295 CNS, in the assay on A549 NSCLC, in the assay with KM12 colon, in the assay on SNB-19 CNS and in the assay on SNB-75 CNS was over 100 µM throughout. Besides, the TGI in the assay with SF-268 CNS, with OVCAR-4 ovarian, with SW-620 colon, in the assay with MDA-MB-231 breast, in the assay with UACC-62 melanoma and in the assay on MDA-N was over 100 µM each time. Moreover, the TGI with EKVX NSCLC, in the assay on OVCAR-8 ovarian, with T-47D breast, in the assay with OVCAR-5 ovarian and in the assay with SF-539 CNS was over 100 µM each time.
Take `COc1ccc(NS(=O)CCCc2ccccc2)cc1` (centres undefined): the TGI in the assay with NCI-H522 lung, in the assay with SF-295 CNS, with A549 NSCLC, in the assay with KM12 colon, in the assay on SNB-19 CNS and with SF-268 CNS was over 100 µM throughout. Also, the TGI in the assay with RPMI-8226 leukemia, in the assay on OVCAR-4 ovarian, in the assay with SW-620 colon, in the assay on MDA-MB-231 breast, in the assay on UACC-62 melanoma and in the assay with MDA-N was over 100 µM each time. Moreover, the TGI was over 100 µM in the assay with EKVX NSCLC; over 100 µM with OVCAR-8 ovarian; 71.9 µM in the assay with T-47D breast; over 100 µM in the assay with OVCAR-5 ovarian; over 100 µM in the assay on SF-539 CNS.
Consider `O=c1oc2ccccc2cc1/C=N/N1C(=S)N(c2ccccc2)C(=Nc2ccccc2)C1=Nc1ccccc1`, for which the TGI in the assay on NCI-H522 lung, in the assay on SF-295 CNS, in the assay on A549 NSCLC, in the assay on KM12 colon, in the assay with SNB-19 CNS and with SNB-75 CNS was over 100 µM throughout. For the same molecule, the TGI with SF-268 CNS, with RPMI-8226 leukemia, with SW-620 colon, in the assay on MDA-MB-231 breast, with UACC-62 melanoma and in the assay with MDA-N was over 100 µM in each case. Also, the TGI with EKVX NSCLC, in the assay on OVCAR-8 ovarian, with T-47D breast, in the assay with OVCAR-5 ovarian and in the assay on SF-539 CNS was over 100 µM throughout.
For `[N-]=[N+]=Nc1c(-c2ccccc2)c(Cl)nc2ccccc12`, the TGI with NCI-H522 lung was over 100 µM; with SF-295 CNS it was over 100 µM; in the assay on A549 NSCLC, over 100 µM; in the assay on KM12 colon, 45.2 µM; with SNB-19 CNS, over 100 µM; with SNB-75 CNS, over 100 µM. The TGI in the assay with SF-268 CNS, with RPMI-8226 leukemia, in the assay with OVCAR-4 ovarian, with SW-620 colon, in the assay on MDA-MB-231 breast and in the assay with MDA-N was over 100 µM each time. Further, the TGI in the assay on EKVX NSCLC, in the assay on OVCAR-8 ovarian, with T-47D breast, in the assay with OVCAR-5 ovarian and with SF-539 CNS was over 100 µM throughout.
As for `O=[N+]([O-])/C=C1\COCc2cc3c(cc21)OCO3`, the TGI in the assay with NCI-H522 lung was 40.2 µM; in the assay with SF-295 CNS, over 100 µM; with A549 NSCLC, 39.8 µM; with KM12 colon it was 28.4 µM; in the assay on SNB-75 CNS, 38.9 µM; in the assay with SF-268 CNS it was 67 µM. For the same molecule, the TGI in the assay on RPMI-8226 leukemia was found to be 68.5 µM; in the assay with SW-620 colon, 47.4 µM; in the assay on MDA-MB-231 breast, 29.8 µM; with UACC-62 melanoma it was 51.8 µM; with MDA-N, 40.4 µM; in the assay with EKVX NSCLC, 74.7 µM. For the same molecule, the TGI was found to be 84.4 µM in the assay on OVCAR-8 ovarian, 46 µM in the assay with T-47D breast, 43.4 µM with OVCAR-5 ovarian and 52.4 µM in the assay on SF-539 CNS.
Consider `COc1ccc(NC2Oc3cc4c(cc3C(c3cccc(OC)c3OC)C2C)OCO4)cc1` (centres undefined), for which the TGI in the assay on NCI-H522 lung was over 100 µM; in the assay with SF-295 CNS, 32.3 µM; in the assay on A549 NSCLC, over 100 µM; with KM12 colon, over 100 µM; with SNB-19 CNS, over 100 µM; in the assay with SNB-75 CNS it was over 100 µM. Further, the TGI in the assay on SF-268 CNS, in the assay on RPMI-8226 leukemia, with SW-620 colon, in the assay on MDA-MB-231 breast, in the assay on UACC-62 melanoma and in the assay on MDA-N was over 100 µM each time. Besides, the TGI in the assay with EKVX NSCLC, with OVCAR-8 ovarian, in the assay on T-47D breast, in the assay with OVCAR-5 ovarian and in the assay with SF-539 CNS was over 100 µM throughout.
`O=C(NCCCCCCCCNC(=O)c1cc(-c2ccccc2)nc2ccccc12)c1cc(-c2ccccc2)nc2ccccc12`: the TGI in the assay with NCI-H522 lung, in the assay on SF-295 CNS, in the assay on A549 NSCLC, in the assay on SNB-19 CNS, in the assay with SNB-75 CNS and in the assay with SF-268 CNS was over 100 µM each time. Further, the TGI in the assay on RPMI-8226 leukemia, with OVCAR-4 ovarian, in the assay with SW-620 colon, in the assay with MDA-MB-231 breast, with UACC-62 melanoma and in the assay with MDA-N was over 100 µM each time. In addition, the TGI with EKVX NSCLC, in the assay with OVCAR-8 ovarian, in the assay on T-47D breast, with OVCAR-5 ovarian and in the assay on SF-539 CNS was over 100 µM in each case.
Regarding `COc1ccc(NC(=O)CC(=O)N2N=C(C)C(N=Nc3ccc(S(=O)(=O)c4ccc(N=NC5C(=O)N(C(=O)CC(=O)Nc6ccc(OC)cc6)N=C5C)cc4)cc3)C2=O)cc1` (centres undefined), the TGI with NCI-H522 lung, with SF-295 CNS, in the assay on A549 NSCLC, with KM12 colon, in the assay with SNB-19 CNS and in the assay on SNB-75 CNS was over 100 µM each time. Moreover, the TGI in the assay with SF-268 CNS, with RPMI-8226 leukemia, in the assay with OVCAR-4 ovarian, in the assay on SW-620 colon, with MDA-MB-231 breast and in the assay with UACC-62 melanoma was over 100 µM each time. The TGI in the assay on MDA-N, in the assay with EKVX NSCLC, in the assay with OVCAR-8 ovarian, with T-47D breast and in the assay with SF-539 CNS was over 100 µM throughout.
